Test results reported in patent US5877165A, “Boronated porhyrins and methods for their use” (priority 1997, dated 1999).
Entries after “also recorded” stand apart in the source; their conditions may differ.

Experiments:
KHJJ mammary carcinomas = assay: Boron biodistribution, mice with KHJJ mammary carcinomas (Examples 8-12, Table 2); parameters: species or system BALB/c mice; conditions: mouse, in vivo
Description: (§1) Female BALB/c mice (Taconic Farms, Germantown, N.Y.) (20-25 g) were implanted with either KHJJ or EMT-6 tumors. For KHJJ tumors, 1-3 mm^3 tumor fragments were implanted subcutaneously (s.c.) in the dorsal thorax of each mouse using an 18-gauge trocar. For EMT-6 tumors, 2.5×10^5 cells were implanted similarly using a 27-gauge needle. EMT-6 tumor cells were grown alternately in vivo and in vitro. Single-cell suspensions were prepared from mouse-grown tumors by trypsinization. These were grown in cell culture for several passages and then were frozen in 10% DMSO and stored in liquid nitrogen. Prior to implantation in mice, the cells were thawed and grown in tissue culture in Alpha-MEM with 10% FBS for several passages.
(§2) Under deep halothane anesthesia leading to euthanasia, right ventricular blood was collected in Microtainer (Becton-Dickinson, Rutherford, N.J.) tubes containing EDTA for hematological analyses and boron assays of whole blood and in Microtainer™ tubes containing lithium heparin for chemical analyses and enzyme assays of blood plasma. Tumor, brain, fat, muscle, and liver tissues were sampled at necropsy for boron analyses.
Direct current plasma-atomic emission spectroscopy [DCP-AES] (ARL/Fisons Model SS-7) was used (detection limit: 0.1 μg/ml). Samples (50-130 mg) were digested at 60° C. with sulfuric acid:nitric acid (1:1). […]

[1] = Hematological, enzymatic and chemical blood analyses and weight change, mice with KHJJ mammary carcinomas (Examples 8-12, Table 2); type: in vivo, BALB/c mice; conditions: 244 μg/gbw; 17 hr to 4 d
Description: as §1, with “passages. […]” for “passages.”
Levels of glucose [GLU], blood urea nitrogen [BUN], blood creatinine [BCR], alanine transaminase [ALT], aspartate transaminase [AST], alkaline phosphatase [ALP], total protein [TPR], albumin [ALB], and creatine phosphokinase [CPK] were determined in blood plasma using a Cobas Fara II microanalysis system. Blood platelets [PLT] and white blood cells [WBC] were counted using a Serono-Baker System 9000 automated hematology microanalyzer. […]

[2] = total doses up to 272 μg/gbw, n>80 mice (Miura et al., 1996); cited from earlier work
EMT-6 mammary tumors = assay: Experiment III: boron concentrations in tissues, mice bearing EMT-6 tumors (Table 8); parameters: species or system BALB/c mice; conditions: mouse, in vivo, ip, 183 mg/kg
Description: Lipophilic porphyrins 1, 2, 4, 5, and 6 were injected as emulsions in either 3% or 9% CRM and either 6% or 18% PRG with saline as previously described in Example 2 above. Water soluble porphyrins 3 and 7 were dissolved in saline. BPA was solubilized as a fructose complex.
Female BALB/c mice (from Taconic Farms, Germantown, N.Y.) (20-25 g) were implanted with either KHJJ or EMT-6 tumors according to the procedure described in Example 3A above.
as §2
In Experiment III, NiTCP and NiTCP-H were compared in mice bearing EMT-6 mammary tumors. Each porphyrin was administered via 6 i.p. injections over a period of 32 hours and the mice were euthanized 39 hours and 90 hours after the last injection.
Hematological, chemical and enzymatic tests were carried out as described in Example 3 above. Nonparametric statistical analyses were carried out using the Wilcoxon Two-Sample Test in accordance with procedures described in Slatkin, D.N., 1995. Boron analyses were conducted in accordance with the procedure described in Example 3 above. Fat and liver tissues were assayed for ^10 B by prompt-gamma spectroscopy as described in Fairchild, et al., 1986. These measurements were multiplied by 5.0 to give total boron concentrations due to the use of boron of natural isotope abundance in the syntheses of all boronated porphyrins reported.

Nickel Tetracarboranylphenylporphyrin [NiTCP]
retention of boron in tumor, in words (KHJJ mammary carcinomas): the ability to retain the therapeutic amounts of boron in the tumor for several days | time before average blood boron concentration falls below 1 ppm (KHJJ mammary carcinomas): 4 days | toxicity, in words [1]: non-toxic; also recorded: only slight differences in the results of blood chemical analyses between the NiTCP groups and the solvent-only control groups; also recorded: Weight loss was only observed 17 hours after the last injection of NiTCP | mortality and toxicity, in words [2]: no mortality (n>80) nor any substantial toxicity | Boron concentration, Blood (EMT-6 mammary tumors; 39 h): 2.8 (0.8-11.4) μg B/g | Boron concentration, Brain (EMT-6 mammary tumors; 39 h): 1.6 (1.0-2.5) μg B/g | Boron concentration, Liver (EMT-6 mammary tumors; 39 h): 201 (162-251) μg B/g | Boron concentration, Tumor (EMT-6 mammary tumors; 39 h): 40 (26-73) μg B/g | Boron concentration, Blood (EMT-6 mammary tumors; 90 h): 0.3 (0.1-0.3) μg B/g | Boron concentration, Brain (EMT-6 mammary tumors; 90 h): 4.2 (1.3-6.0) μg B/g | Boron concentration, Liver (EMT-6 mammary tumors; 90 h): 226 (176-284) μg B/g
